Tests used:
[1] = Relative humidity (RH) stress of salts; assay type: physicochemical; settings: solid in open vial, 10 days at 94% RH
Source text: Solids of select Compound 1 salts were exposed to ˜94% RH (ASTM Standard E, 104-85, 1996) for a given period of time by placing the solids into an open vial inside a sealed container. Samples were observed visually for signs of deliquescence after removal from the stress environment.

p97 = p97 (Homo sapiens, UniProt P55072); assay: p97 inhibition assay (ADP glo luminescence); assay type: biochemical; settings: ATP 20 μM, p97 20 nM, 37° C. for 15 min
p97, sequence (P55072 whole entry): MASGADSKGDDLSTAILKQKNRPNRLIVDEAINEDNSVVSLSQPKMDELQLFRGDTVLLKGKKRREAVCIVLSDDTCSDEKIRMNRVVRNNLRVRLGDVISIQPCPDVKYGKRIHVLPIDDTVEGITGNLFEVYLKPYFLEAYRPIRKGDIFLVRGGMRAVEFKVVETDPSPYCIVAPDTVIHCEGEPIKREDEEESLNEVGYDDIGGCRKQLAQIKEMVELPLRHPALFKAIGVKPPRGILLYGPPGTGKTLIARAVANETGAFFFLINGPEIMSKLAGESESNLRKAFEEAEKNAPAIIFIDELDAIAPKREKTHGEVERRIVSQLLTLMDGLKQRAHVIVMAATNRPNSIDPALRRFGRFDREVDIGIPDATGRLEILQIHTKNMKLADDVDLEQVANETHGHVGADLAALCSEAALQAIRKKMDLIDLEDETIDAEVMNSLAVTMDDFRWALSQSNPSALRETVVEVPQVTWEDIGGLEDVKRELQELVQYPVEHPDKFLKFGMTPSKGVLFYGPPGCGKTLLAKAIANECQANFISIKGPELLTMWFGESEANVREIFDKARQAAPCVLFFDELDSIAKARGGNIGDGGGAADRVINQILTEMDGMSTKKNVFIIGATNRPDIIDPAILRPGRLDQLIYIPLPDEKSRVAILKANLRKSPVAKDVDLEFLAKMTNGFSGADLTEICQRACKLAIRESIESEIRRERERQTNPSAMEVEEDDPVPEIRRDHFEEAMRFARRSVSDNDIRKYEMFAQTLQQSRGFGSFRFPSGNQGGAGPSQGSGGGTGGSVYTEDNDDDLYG
Experimental: The p97 assay is an assay used to determine inhibitory activity of compounds against the p97 complex. Inhibition of activity of the p97 proteosome complex can enable apoptosis and cause elimination of neoplastic cells (cancer cells). The assay follows that of Christianson in Nat. Cell Biol., (2011) 14:93. The reagents used for the p97 assay include an assay buffer which is a mixture of 50 mM TRIS pH 7.5, 20 mM MgCI˜, 0.02% TX-100, 1 mM DTT and 0.2% (v/v) glycerol. The well plate is a Corning 3674, 384w plate. The identification kit is an ADP glo kit (Promega): stop buffer, detection reagent.
The assay is conducted as follows: • Serial dilute compound in DMSO in a 1:3.33-fold 10 point serial dilution. • In each well of 384w plate add the following reagents: • 0.5 μL compound serial diluted in DMSO (Final Conc. 10%) • 2 μL ATP (Final Conc.=20 μM, diluted in assay buffer) • 2.5 μL p97 (Final Conc.=20 nM, diluted in assay buffer). • Incubate at 37° C. for 15 min. • Add 5 μL of stop buffer, incubate at RT for 40 min. • Add 10 μL of detection reagent, incubate at RT for 30 min. • Read luminescence on Envision plate reader. […]

| Compound | RH stress: change in appearance/texture (signs of deliquescence, visual) [1] | IC50 (p97) [nM] |
| --- | --- | --- |
| Cc1cc2c(C(N)=O)cccc2n1-c1nc2c(c(NCc3ccccc3)n1)CCCN2.O=S(=O)(O)O.O=S(=O)(O)O [Compound 1 sulfate, 1-(4-(benzylamino)-5,6,7,8-tetrahydropyrido[2,3-d]pyrimidin-2-yl)-2-methyl-1H-indole-4-carboxamide sulfuric acid salt (sulfate)] | no apparent change in appearance/texture | – |
| Cc1cc2c(C(N)=O)cccc2n1-c1nc2c(c(NCc3ccccc3)n1)CCCN2 [Compound 1, 1-(4-(benzylamino)-5,6,7,8-tetrahydropyrido[2,3-d]pyrimidin-2-yl)-2-methyl-1H-indole-4-carboxamide] | – | < 30 |
| Cc1cc2c(C(N)=O)cccc2n1-c1nc2c(c(NCc3ccccc3)n1)CCCN2.Cl.Cl [Compound 1 hydrochloride, 1-(4-(benzylamino)-5,6,7,8-tetrahydropyrido[2,3-d]pyrimidin-2-yl)-2-methyl-1H-indole-4-carboxamide hydrochloric acid salt (hydrochloride)] | no apparent change in appearance/texture | – |
| Cc1cc2c(C(N)=O)cccc2n1-c1nc2c(c(NCc3ccccc3)n1)CCCN2.Cc1ccc(S(=O)(=O)O)cc1.Cc1ccc(S(=O)(=O)O)cc1 [Compound 1 tosylate, 1-(4-(benzylamino)-5,6,7,8-tetrahydropyrido[2,3-d]pyrimidin-2-yl)-2-methyl-1H-indole-4-carboxamide p-toluenesulfonic acid salt (tosylate)] | no apparent change in appearance/texture | – |
